Here are results for seven molecules from patent US9404142B2, “Screening methods for identifying Plasmodium proteases inhibitors” (Institut Pasteur, priority 2010, dated 2016).

One test relates to P. falciparum 3D7 strain. The test can be described thus: In vitro drug susceptibility assay on P. falciparum culture, clone 3D7. In kind it is cell-based. To be noted: Plasmodium falciparum. On the procedure: FIG. 2B depicts the FRET-based specific enzymatic assay which was used. In this particular case the assay consists in measuring fluorescence of tagged peptidic substrate of SUB1. […] Molecules where thus tested and their Ki (inhibition constant) was determined on the PvSUB1 recombinant enzyme. FIG. 2C provides determination of the Ki of the AG6, AG1 and BH5 compounds for the recombinant PvSUB1 enzyme with the Dabsyl Edans substrate. […] The final mixture was distributed in duplicate into a 384-well black microtiter plate (Thermo Scientific) and the fluorescence was monitored. The slope of the linear part of the kinetic was determined in an Excel™ (Microsoft) spreadsheet. The Ki and EC50 values expressed in μM were determined using GraphPad Prism™ software.
Parasites were incubated at 37° C. in an atmosphere composed of 5% O2, 5% CO2 and 90% N2. […] IC50/EC50 have been determined following nonlinear regression analysis using HN-NonLin V1.1 software (malaria.farch.net).

Another test concerns P. falciparum Dd2 strain. The test can be described thus: In vitro drug susceptibility assay on P. falciparum culture, clone Dd2. To be noted: Plasmodium falciparum, DD2, read-out: IC50 on P. falciparum Dd2 strain. In kind it is cell-based.
In a further test the target is recombinant PvSUB1 (Plasmodium vivax, UniProt E6Y8B9). The test can be described thus: FRET-based PvSUB1 enzymatic assay, Ki determination. The class given is biochemical. As to conditions: Dabsyl Edans substrate; mean of at least three independent experiments ± SEM. On the procedure:
FIG. 2B depicts the FRET-based specific enzymatic assay which was used. In this particular case the assay consists in measuring fluorescence of tagged peptidic substrate of SUB1. An uncleaved peptide has low intensity emission whereas, when the peptide is cleaved by SUB1, high intensity emissions are measured. […] Molecules where thus tested and their Ki (inhibition constant) was determined on the PvSUB1 recombinant enzyme. FIG. 2C provides determination of the Ki of the AG6, AG1 and BH5 compounds for the recombinant PvSUB1 enzyme with the Dabsyl Edans substrate. Ten different concentrations, ranging from 300 μM to 585 nM following sequential 1:2 dilutions, of the compounds were tested using the PvSUB1 enzymatic assay. The final mixture was distributed in duplicate into a 384-well black microtiter plate (Thermo Scientific) and the fluorescence was monitored. The slope of the linear part of the kinetic was determined in an Excel™ (Microsoft) spreadsheet. The Ki and EC50 values expressed in μM were determined using GraphPad Prism™ software. […]
For the kinetic assays we used the recombinant PvSUB1/PfSUB1 enzymes and specific peptide substrates whose sequence are deduced from the auto-maturation site of each one: KLVGADDVSLA (SEQ ID NO: 9), which cleavage occurs between the two aspartates for PvSUB1 and KLVSADNIDIS (SEQ ID NO: 11) which is cleaved between the aspartate and the asparagine for PfSUB1. […] The final mixture was distributed in duplicate into a 384-well black microtiter plate (Thermo Scientific) and the fluorescence was monitored every 3 minutes for 90 min at 37° C. in a Labsystems Fluoroskan Ascent™ spectrofluorometer or a Tecan Infinite M1000™ spectrofluorometer using the excitation and emission wavelengths of […] or 620/680 nm for the Dabsyl/Edans or DYQ660/DY630 substrates respectively. The slope of the linear part of the kinetic was determined in an Excel™ (Microsoft) spreadsheet. Every steps of the enzymatic assay were done on ice to make sure that the protein was not active before the measure of the fluorescence. […]

Test [1] addresses PvSUB1 Dabsyl Edans substrate (Plasmodium vivax).
Test [2] has as its target PfSUB1 Dabsyl Edans substrate (Plasmodium falciparum).
The next test deals with SERA5 maturation by SUB1. The test can be described thus: Inhibition of maturation of SERA5 (western blot) in synchronized P. falciparum culture. In kind it is cell-based, Plasmodium falciparum. As to conditions: compounds 90 μM, E64 10 μM; 12 hr, serum-free medium; western blot mAb 24C6.1F1. On the procedure:
(§1) Next, the selected SUB1 inhibitors were evaluated biologically for their impact on P. falciparum 3D7 stage-specific ex vivo culture. […] In vitro synchronized culture of P. falciparum composed of 0.5% of segmented schizonts (To) was cultivated for 12 hr in serum-free medium in the absence (T12) or presence of DMSO (0.9% v/v) (lane DMSO). Lanes A/G1, A/G6, B/H5 correspond to parasites incubated with 90 μM of corresponding compounds. Lanes E64 and RBC correspond to parasites cultured in presence of E64 (10 μM) and uninfected erythrocytes respectively. Parasite extracts and culture supernatants were analyzed by western blot with mAb 24C6.1F1. SERA5 126 kDa precursor and its processed forms of 73, 56 and 50 kDa are indicated. […] Segmented schizonts (starting material, To) were cultivated for 12 hr in serum-containing medium and their transition to newly formed trophozoites-stages in presence of 0.9% DMSO (DMSO) was analysed by flow cytometry using YOYO1 Facs technique (Li et al, Cytometry, 71A, 297-307, 2007). Gates were selected to exclude uninfected erythrocytes and converted to two-dimensional plots illustrating the consequence of the presence of tested compounds on the arrest of schizogony. All compounds were tested at 90 μM, except E64 tested at 10 μM.
(In general: In western blotting, separated proteins are transferred to a membrane and probed.)

Test [3] concerns P. falciparum (3D7 clone) segmented schizonts. Put plainly: Merozoite egress/invasion, flow cytometry (YOYO-1) on segmented schizonts. The class given is cell-based, Plasmodium falciparum. To be noted: 90 μM, 12 hr, serum-containing medium. On the procedure: as §1, with “24C6.1F1.” for “24C6.1F1. SERA5 126 kDa precursor and its processed forms of 73, 56 and 50 kDa are indicated.”, “Gates were selected to exclude uninfected erythrocytes and converted to two-dimensional plots illustrating the consequence of the presence of tested compounds on the arrest of schizogony. All compounds were tested at 90 μM, except E64 tested at 10 μM.” left out
A synchronised culture composed of segmented schizonts of P. falciparum (3D7 clone) at 0.5% parasitemia and 1% hematocrit is performed in a 24 wells plate. […] The progress of the parasitaemia from segmented schizont to newly formed trophozoites was assessed by flow cytometry after staining samples by the DNA-binding fluorescent dye, YOYO-1™, as previously described by Li and colleagues [2007, Cytometry A 71: 297-307.] with some modifications. […]
For orientation: Flow cytometry measures light scatter and fluorescence of single cells or particles in a stream.

Setting [4] is: chloroquino-sensitive clone 3D7, mean ± SEM, read-out: IC50 on P. falciparum 3D7 strain.

Read-outs that look alike come from different tables or passages of the source.

With `O=C(Cn1ncc2c3ccccc3n(Cc3cccc(Cl)c3)c2c1=O)N1CCc2ccccc21` [B/H5], the IC50 with P. falciparum 3D7 strain (setting [4]) is 16.9 ± 3.3 µM; in the test with P. falciparum Dd2 strain, 13 ± 8.1 µM. The inhibitory constant (Ki) on recombinant PvSUB1 worked out at 1.4 ± 1 µM.

Regarding “recombinant enzymatically active form of Plasmodium vivax SUB1-Belem (PvSUB1-Belem) (enzyme)”, the apparent Km, FRET-based cleavage assay in test [1] was 19.7 µM.

For the molecule “recombinant Plasmodium falciparum SUB1 (PfSUB1) (enzyme)”, the apparent Km, FRET-based cleavage assay in test [2] stood at 30.2 µM.

`CC(C)C[C@H](NC(=O)[C@H]1O[C@@H]1C(=O)O)C(=O)NCCCCN=C(N)N` [Compound E64]: the “Maturation of SERA5 by SUB1 successive cleavages” value with SERA5 maturation by SUB1 is “inactive”.

On to `CCN(CC)CCCC(C)Nc1ccnc2cc(Cl)ccc12` (stereo not shown) [chloroquine, reference compound], for which the concentration for half-maximal inhibition (IC50) in the test with P. falciparum 3D7 strain (3D7, read-out: IC50 on P. falciparum 3D7 strain) is 0.0043 ± 0.0013 µg/mL; with P. falciparum Dd2 strain it was 0.0355 ± 0.0137 µg/mL.

`COc1cccc(C2c3c(-c4ccc(F)cc4)n[nH]c3C(=O)N2c2ccccc2)c1` (stereo not shown) [A/G6]: the IC50 in the test with P. falciparum 3D7 strain (setting [4]) came to 17.7 ± 1.7 µM; with P. falciparum Dd2 strain, 14.8 ± 6.7 µM. The Ki on recombinant PvSUB1 came to 8.2 ± 1.9 µM. Further, the “Arrest of schizogony / merozoite egress” value in test [3] was “able to maintain the parasites to the schizonts stage”.

Take `O=C(C[n+]1cccc(C(=O)Nc2ccccc2)c1)c1ccc(NC(=O)c2ccccc2)cc1` [A/G1]: the IC50 with P. falciparum 3D7 strain (setting [4]) came to 4.7 ± 1.8 µM; in the test with P. falciparum Dd2 strain, 3.5 ± 1.7 µM. In addition, the Ki on recombinant PvSUB1 amounted to 5.5 ± 2.4 µM. For the same molecule, the “Arrest of schizogony / merozoite egress” value in test [3] is on record as “able to maintain the parasites to the schizonts stage”.

What is called IC50 is the midpoint of a concentration-inhibition curve. As usually defined, the Ki is a measure of affinity in units of concentration, obtained from inhibition or displacement.
